10 compounds from ChEMBL document CHEMBL1795311, “Synthesis, antiproliferative activity, and mechanism of action of a series of 2-{[(2E)-3-phenylprop-2-enoyl]amino}benzamides” (Eur J Med Chem, 2011) can be followed below.

Assay [1] relates to K562. Kind of assay: Antiproliferative activity against human K562 cells at 10 uM after 48 hrs by trypan blue assay. In kind it is functional. The settings on record: K562, 48 h, read-out: GI.
Assay [2] has as its system K562. Kind of assay: Growth inhibition of human K562 cells after 48 hrs by trypan blue assay. In kind it is functional, cell-based. The settings on record: K562, 48 h.

pIC50: −log10 of the molar value.

As to `Cc1ccc(/C=C/C(=O)Nc2ccc(Br)cc2C(N)=O)cc1`, the inhibition of growth at 10 µM in the assay with K562 [1] is 45.9%. In addition, the pIC50 in the assay with K562 [2] is less than 5.00.
On the same counts, the results for `NC(=O)c1cc(Br)ccc1NC(=O)/C=C/c1ccccc1Cl` are 59% and 5.09.
On the same counts, the results for `Cc1ccccc1/C=C/C(=O)Nc1ccc(Br)cc1C(N)=O` are 43.2% and less than 5.00.
Taken in the same sequence, the figures for `COc1cc2c(c(OC)c1OC)-c1ccc(OC)c(=O)cc1[C@@H](NC(C)=O)CC2` [COLCHICINE] were 63.6% and 7.70.
On to `NC(=O)c1cc(Cl)ccc1NC(=O)/C=C/c1ccc(Cl)cc1`, for which, in the assay with K562 [1], the inhibition of growth at 10 µM worked out at 31%. Moreover, the pIC50 with K562 [2] is less than 5.00.
Taken in the same sequence, the figures for `Cc1ccccc1/C=C/C(=O)Nc1ccc(Cl)cc1C(N)=O` were 52.2% and 5.02.
Taken in the same sequence, the figures for `Cc1cccc(/C=C/C(=O)Nc2ccc(Cl)cc2C(N)=O)c1` were 37.8% and less than 5.00.
For `NC(=O)c1cc(Cl)ccc1NC(=O)/C=C/c1ccccc1Br`, the inhibition of growth at 10 µM in the assay on K562 [1] stood at 49%. Moreover, the pIC50 in the assay on K562 [2] is 5.00.
On to `NC(=O)c1cc(Br)ccc1NC(=O)/C=C/c1ccc(Cl)cc1`, for which the inhibition of growth at 10 µM with K562 [1] stood at 22%. For the same compound, the negative-log IC50 (pIC50) in the assay on K562 [2] was less than 5.00.
Taken in the same sequence, the figures for `Cc1ccc(/C=C/C(=O)Nc2ccc(Cl)cc2C(N)=O)cc1` were 64% and 5.20.
